Measurements: patent publication US20240180915A1, “OIL-IN-WATER EMULSION OF 6-ETHOXY-7-METHOXY-2-(2-[…])-3,L-BENZOXAZIN-4-ONE” (SIXERA PHARMA AB, priority 2021, published 2024)

What was measured:
[1] = Solubility of the active in water and organic solvents (statement); assay type: physicochemical
Excerpt: However, such organic solvents are unsuitable for use in topical formulations for treatment of skin disease.

[2] = Initial formulation attempts with common solvents and excipients: crystal formation upon storage; assay type: physicochemical; details: common pharmaceutically acceptable solvents and excipients
Excerpt: Accordingly, further development was needed to arrive at a stable topical formulation where crystal formation of 6-ethoxy-7-methoxy-2-(2-methylsulfanylphenyl)-3,1-benzoxazin-4-one can be avoided.

Solubility in water ([1]; water): low solubility in water
SMILES: CCOc1cc2c(=O)oc(-c3ccccc3SC)nc2cc1OC [6-Ethoxy-7-methoxy-2-(2-methylsulfanylphenyl)-3,1-benzoxazin-4-one]
Solubility in organic solvents ([1]; various organic solvents): can be dissolved in various organic solvents
Crystal formation upon storage of the formulation [2]: form needle shaped crystals upon storage of the formulation
